PMC3365763 (The Journal of Biological Chemistry, 2012)
Substitutions are numbered along the chain they refer to.

Experiments:
Assay type in all cases: biochemical
[1] = biological target: T1, TG2 (transglutaminase-2, transglutaminase type 2) (Homo sapiens, UniProt P21980, R28S)
T1 sequence (P21980 1-687 R28S): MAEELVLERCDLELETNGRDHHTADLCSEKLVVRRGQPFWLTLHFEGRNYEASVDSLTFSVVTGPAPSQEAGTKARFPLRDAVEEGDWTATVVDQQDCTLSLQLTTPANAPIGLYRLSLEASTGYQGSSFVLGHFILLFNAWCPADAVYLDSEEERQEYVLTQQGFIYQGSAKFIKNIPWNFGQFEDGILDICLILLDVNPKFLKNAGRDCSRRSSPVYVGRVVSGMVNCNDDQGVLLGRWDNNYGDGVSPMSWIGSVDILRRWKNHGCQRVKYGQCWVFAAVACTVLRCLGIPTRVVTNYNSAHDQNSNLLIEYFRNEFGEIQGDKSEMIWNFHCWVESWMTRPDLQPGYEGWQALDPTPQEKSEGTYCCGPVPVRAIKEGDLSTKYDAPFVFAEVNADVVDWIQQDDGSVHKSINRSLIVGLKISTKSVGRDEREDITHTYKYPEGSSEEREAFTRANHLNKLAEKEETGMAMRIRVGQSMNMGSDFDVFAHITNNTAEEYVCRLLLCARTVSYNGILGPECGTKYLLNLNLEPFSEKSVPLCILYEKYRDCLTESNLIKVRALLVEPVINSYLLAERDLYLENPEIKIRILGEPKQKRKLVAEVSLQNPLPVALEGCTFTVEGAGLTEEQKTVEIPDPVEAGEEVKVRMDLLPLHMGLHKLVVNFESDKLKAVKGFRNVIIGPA

[2] = biological target: T2, TG2 (transglutaminase-2, transglutaminase type 2) (Homo sapiens, UniProt P21980, K202S/K205S)
T2 sequence (P21980 1-687 K202S/K205S): T1 sequence (P21980 1-687 R28S) with S28R, K202S, K205S

[3] = biological target: T3, TG2 (transglutaminase-2, transglutaminase type 2) (Homo sapiens, UniProt P21980, R263S)
T3 sequence (P21980 1-687 R263S): T1 sequence (P21980 1-687 R28S) with S28R, R263S

[4] = biological target: T4, TG2 (transglutaminase-2, transglutaminase type 2) (Homo sapiens, UniProt P21980)
T4 sequence (P21980 1-687): T1 sequence (P21980 1-687 R28S) with S28R

IC50 [1]: 64 ± 27 µM
IC50 [2]: 145 ± 23 µM
IC50 [3]: 79 ± 15 µM
IC50 [4]: 142 ± 24 µM
SMILES: Nc1nc2c(ncn2[C@@H]2O[C@H](COP(=O)(O)OP(=O)(O)OP(=O)(O)O)[C@@H](O)[C@H]2O)c(=O)[nH]1 [GTP]
